Measured values published in patent US5616606A, “Oligopeptide antiretroviral agents” (priority 1995, dated 1997).
Values joined by “and” are separate entries in the source; they are usually repeats but may differ in a detail not shown here. Identical values can stand only once. Like-named read-outs stand apart in the source and are kept apart here.

Experiments:
[1] = target: Moloney Leukemia Virus reverse transcriptase (Moloney murine leukemia virus, UniProt P03355); assay: inhibition of MLV associated reverse transcriptase activity; settings: 50% inhibitory dose after 120 min incubation
HIV-1 = settings: for INFECTED RESPONSE % of Control: Table X
poly(dA-dT) = assay: ethidium displacement assay, poly(dA-dT); settings: relative to ethidium 9.5 × 10^6 M^-1, average of repeat measurements
[2] = system: T4 lymphocytes (CEM cell line); assay: NCI anti-HIV screen, toxicity control in uninfected cells; assay type: cell-based; settings: Table X
SC-1 cells = assay: toxicity TD50 reported with the anti-MLV test; settings: Table IV
HBV [3] = settings: 9 μM; relative to average levels in untreated cells; typically observed (Korba and Milman, 1991); cited from earlier work
2.2.15 cells = assay: toxicity analysis, neutral red dye uptake in 2.2.15 cells; settings: triplicate, ± standard deviation
[4] = system: Moloney murine leukemia virus (MLV); assay: anti-Moloney murine leukemia virus (MLV) plaque test; assay type: cell-based; settings: anti-MLV plaque count
HBV [5] = assay: inhibition of HBV DNA replication in 2.2.15 cell cultures; assay type: cell-based; settings: for INT[…] DNA MONO. / INT[…] DNA RI: 24 hours following the 9th day of treatment; for INT[…] DNA MONO. / INT[…] DNA RI / HBV VIRION DNA DAY 0 / HBV VIRION DNA DAY 6 / HBV VIRION DNA DAY 9: single well
vaccinia virus = assay type: cell-based; settings: against vaccinia virus; hydrochloride

For Cl.Cl.Cn1cc(NC(=O)c2cc(NC(=O)[C@@H]3CC[C@H]3C(=O)Nc3cc(C(=O)Nc4cc(C(=O)NCCC(=N)N)n(C)c4)n(C)c3)cn2C)cc1C(=O)NCCC(=N)N (relative stereo) [Compound 25b, N,N'-di[1-methyl-2-[1-methyl-2-carboxamido(3-propionamidine)-4-pyrrole]-4-pyrrolyl] trans 1,2-cyclobutaneamide dihydrochloride], the “ID50 (average ± SD)” value [1] was 21.8 ± 9.2 µg/mL, the EC50 (HIV-1; Table XI) was 0.42 µM and the “INFECTED RESPONSE % of Control” value (HIV-1; dose 2.92 × 10^-4 Molar) was 0.04 % of Control. For the same compound, the “INFECTED RESPONSE % of Control” value (HIV-1; dose 2.93 × 10^-5 Molar) was 110.05 % of Control, the “INFECTED RESPONSE % of Control” value (HIV-1; dose 2.93 × 10^-6 Molar) was 77.00 % of Control and the “INFECTED RESPONSE % of Control” value (HIV-1; dose 2.94 × 10^-7 Molar) was 42.92 % of Control. For the same compound, the “INFECTED RESPONSE % of Control” value (HIV-1; dose 9.25 × 10^-4 Molar) was 9.72 % of Control, the “INFECTED RESPONSE % of Control” value (HIV-1; dose 9.27 × 10^-5 Molar) was 90.52 % of Control and the “INFECTED RESPONSE % of Control” value (HIV-1; dose 9.29 × 10^-7 Molar) was 59.07 % of Control. For the same compound, the “INFECTED RESPONSE % of Control” value (HIV-1; dose 9.38 × 10^-6 Molar) was 80.26 % of Control, the Kapp (poly(dA-dT)) was 5.6e+07 M⁻¹ and the “[…] % of Control” value ([2]; dose 2.92 × 10^-4 Molar) was 0.54 % of Control. For the same compound, the “[…] % of Control” value ([2]; dose 2.93 × 10^-5 Molar) was 174.62 % of Control, the “[…] % of Control” value ([2]; dose 2.93 × 10^-6 Molar) was 116.36 % of Control and the “[…] % of Control” value ([2]; dose 2.94 × 10^-7 Molar) was 90.95 % of Control. For the same compound, the “[…] % of Control” value ([2]; dose 9.25 × 10^-4 Molar) was 8.29 % of Control, the “[…] % of Control” value ([2]; dose 9.27 × 10^-5 Molar) was 101.95 % of Control and the “[…] % of Control” value ([2]; dose 9.29 × 10^-7 Molar) was 102.41 % of Control. The “[…] % of Control” value ([2]; dose 9.38 × 10^-6 Molar) was 145.18 % of Control.
For Nc1ccn([C@H]2CC[C@@H](CO)O2)c(=O)n1 [DDC, 2,3'-dideoxycytosine, reference compound], the “Toxicity, TD50” value (SC-1 cells) is listed as greater than 100.00 ug/mL^-1, the “depression of HBV RI” value (HBV [3]) is listed as 90% and the “NEUTRAL RED DYE UPTAKE” value (2.2.15 cells; 10 μg/ml) is listed as 99 ± 1 % OF CONTROL. For the same compound, the “NEUTRAL RED DYE UPTAKE” value (2.2.15 cells; 30 μg/ml) was 100 ± 1 % OF CONTROL, the “NEUTRAL RED DYE UPTAKE” value (2.2.15 cells; 100 μg/ml) was 89 ± 3 % OF CONTROL and the “NEUTRAL RED DYE UPTAKE” value (2.2.15 cells; 300 μg/ml) was 17 ± 2 % OF CONTROL. The “Activity, MIC50” value [4] was 0.74 µg/mL, the “INT[…] DNA MONO.” value (HBV [5]; 10 μM, listed as 2',3'-ddC) was 2.5 pg/μg CELL DNA and 2.0 pg/μg CELL DNA and the “INT[…] DNA RI” value (HBV [5]; 10 μM, listed as 2',3'-ddC) was 9 pg/μg CELL DNA and 7 pg/μg CELL DNA and 8 pg/μg CELL DNA and 5 pg/μg CELL DNA. For the same compound, the “HBV VIRION DNA DAY 0” value (HBV [5]; 10 μM, listed as 2',3'-ddC) was 63 pg/ml CULTURE MEDIUM and 66 pg/ml CULTURE MEDIUM and 78 pg/ml CULTURE MEDIUM and 68 pg/ml CULTURE MEDIUM, the “HBV VIRION DNA DAY 6” value (HBV [5]; 10 μM, listed as 2',3'-ddC) was 43 pg/ml CULTURE MEDIUM and 47 pg/ml CULTURE MEDIUM and 54 pg/ml CULTURE MEDIUM and 45 pg/ml CULTURE MEDIUM and the “HBV VIRION DNA DAY 9” value (HBV [5]; 10 μM, listed as 2',3'-ddC) was 7 pg/ml CULTURE MEDIUM and 5 pg/ml CULTURE MEDIUM and 6 pg/ml CULTURE MEDIUM and 8 pg/ml CULTURE MEDIUM. The “INT[…] DNA MONO.” value (HBV [5]; 50 μM, listed as 2',3'-ddC) was 1.2 pg/μg CELL DNA and 1.4 pg/μg CELL DNA and 1.8 pg/μg CELL DNA and 1.7 pg/μg CELL DNA, the “INT[…] DNA RI” value (HBV [5]; 50 μM, listed as 2',3'-ddC) was 2 pg/μg CELL DNA and 1 pg/μg CELL DNA and the “HBV VIRION DNA DAY 0” value (HBV [5]; 50 μM, listed as 2',3'-ddC) was 57 pg/ml CULTURE MEDIUM and 51 pg/ml CULTURE MEDIUM and 58 pg/ml CULTURE MEDIUM and 59 pg/ml CULTURE MEDIUM. The “HBV VIRION DNA DAY 6” value (HBV [5]; 50 μM, listed as 2',3'-ddC) was 26 pg/ml CULTURE MEDIUM and 28 pg/ml CULTURE MEDIUM and 30 pg/ml CULTURE MEDIUM and 20 pg/ml CULTURE MEDIUM, the “HBV VIRION DNA DAY 9” value (HBV [5]; 50 μM, zero = undetectable, cutoff 0.1 pg/ml) was 0 pg/ml CULTURE MEDIUM and the “effect on HBV replication (in words)” value (HBV [5]; tested at 50 and 10 μM, compared with 2',3'-ddC) was “significant depressions of HBV DNA replication”.
For “1-Methyl-4-(1-methyl-4-trimethylammoniumacetamidopyrrole-2-carboxamido)pyr role-2-carboxyamidopriopionamidine chloride hydrochloride [3(B)]”, the minimum inhibitory concentration (vaccinia virus) was 300 µg/mL.
Work on “1-Methyl-4-(1-methyl-4-trimethylammoniumacetamidopyrrole-2-carboxamido)pyr role-2-carboxyamidopriopionamidine chloride hydrochloride [Example 3(A)]” yielded a minimum inhibitory concentration (vaccinia virus) of 20 µg/mL.
